Reference: US11524055B2, “Methods for treating diseases mediated by ERBB4-positive pro-inflammatory macrophages” (Children's Hospital Los Angeles, priority 2015, dated 2022)

Test system: M1-polarized Mø (classically activated BMDMs)
Assay: Cell Titer Blue (resazurin-based) cell viability assay, classically activated (M1) BMDMs
Design: species or system mouse
Conditions: 1 h pre-treatment, then 100 ng/ml NRG4 and 100 ng/ml LPS
Experimental: (FIG. 8A) Classically activated (M1) or alternatively activated (M2) BMDMs were treated with NRG4 (100 ng/ml) for 48 hours and analyzed by resazurin-based cell titer assay to assess cell numbers compared to control. (FIG. 8B) Classically activated BMDMs pre-incubated for 30 minutes with or without 2 μg/ml ErbB4 neutralizing antibody (E4BA), and treated with or without NRG4 (100 ng/ml) for 48 hours, were stained for cleaved caspase-3. […] (FIG. 8C) Classically activated BMDMs treated with NRG4 (100 ng/ml) for 48 hours were stained for annexin V and propidium iodide (PI), and analyzed by flow cytometry to determine apoptotic cells. n=3-6 independent experiments for each panel. Error bars represent SEM. *, p<0.05; **, p<0.01.
(FIG. 9B) Classically activated BMDMs were pre-treated for 1 hour with metalloprotease inhibitor (GM6001, 10 γ-secretase inhibitor (DAPT, 10 or ADAM17 inhibitor (GW280264X, 3 μM) followed by 100 ng/ml NRG4 and 100 ng/ml LPS. Percent cell viability was analyzed by rezasurin-based cell titer assay. Error bars represent SEM. ***, p<0.001. (FIG. 9C) Immunofluorescence analysis of ErbB4 localization to the mitochondria of classically activated BMDMs treated with or without NRG4 (100 ng/ml) for 48 hours. Arrows point to representative cells with ErbB4/mitochondrial overlap. n=4 independent experiments.
IFNγ/LPS-treated Mø were exposed to NRG4 (100 ng/ml)+/−ErbB4 blocking antibody (E4BA; 2 μg/ml) for 48 h and counted by Cell Titer Blue assay (Promega). n=4. *, p<0.01.
For BMDMs, adherent cells were washed at 3 days and re-fed with M-CSF containing media until experimentation at day 7-8. For M1 polarization, cells were pre-treated with 100 U/ml IFNγ for 16 hours, then stimulated with 100 ng/ml LPS.
BMDMs were plated in 96 well plates at 40,000 cells per well. Cells were washed and plated in DMEM with 10% heat-inactivated FBS, 100 U/ml penicillin and streptomycin, and given 100 U/ml IFNγ overnight. […] Relative cell numbers were determined by Cell Titer Blue (resazurin-based assay) following manufacturer's instructions (Promega, G8081). […]

**Q.** Which “Effect on NRG4-induced cell death (percent cell viability)” value (shortened to “Effect … (percent cell viability)”) (inhibitor 10 μM) does the source give for `C[C@H](NC(=O)Cc1cc(F)cc(F)c1)C(=O)N[C@H](C(=O)OC(C)(C)C)c1ccccc1` [DAPT] here?
**A.** protected against the NRG4-induced cell death

**Q.** For `CNC(=O)[C@H](Cc1c[nH]c2ccccc12)NC(=O)[C@@H](CC(=O)NO)CC(C)C` [GM6001], which “Effect … (percent cell viability)” value (inhibitor 10 μM) is on record?
**A.** protected against the NRG4-induced cell death

**Q.** Which “Effect … (percent cell viability)” value (inhibitor 3 μM) does the source give for GW280264X here?
**A.** protected against the NRG4-induced cell death
